Measured values taken from patent US20240115557A1, “INHIBITORS OF RNA-GUIDED NUCLEASES AND USES THEREOF” (The Brigham and Women's Hospital, Inc., priority 2022, published 2024).

Assays:
[1] = biological target: T1, SpCas9 (Streptococcus pyogenes serotype M1, UniProt Q99ZW2); experiment: Strand displacement assay (SDA) / cumulative activity assay (CAA), SpCas9 primary screen; type: biochemical; conditions: Primary Screen (150 min); for Normalized Z score 1: replicate 1; for Normalized Z score 2: replicate 2
T1 sequence (Q99ZW2 whole entry): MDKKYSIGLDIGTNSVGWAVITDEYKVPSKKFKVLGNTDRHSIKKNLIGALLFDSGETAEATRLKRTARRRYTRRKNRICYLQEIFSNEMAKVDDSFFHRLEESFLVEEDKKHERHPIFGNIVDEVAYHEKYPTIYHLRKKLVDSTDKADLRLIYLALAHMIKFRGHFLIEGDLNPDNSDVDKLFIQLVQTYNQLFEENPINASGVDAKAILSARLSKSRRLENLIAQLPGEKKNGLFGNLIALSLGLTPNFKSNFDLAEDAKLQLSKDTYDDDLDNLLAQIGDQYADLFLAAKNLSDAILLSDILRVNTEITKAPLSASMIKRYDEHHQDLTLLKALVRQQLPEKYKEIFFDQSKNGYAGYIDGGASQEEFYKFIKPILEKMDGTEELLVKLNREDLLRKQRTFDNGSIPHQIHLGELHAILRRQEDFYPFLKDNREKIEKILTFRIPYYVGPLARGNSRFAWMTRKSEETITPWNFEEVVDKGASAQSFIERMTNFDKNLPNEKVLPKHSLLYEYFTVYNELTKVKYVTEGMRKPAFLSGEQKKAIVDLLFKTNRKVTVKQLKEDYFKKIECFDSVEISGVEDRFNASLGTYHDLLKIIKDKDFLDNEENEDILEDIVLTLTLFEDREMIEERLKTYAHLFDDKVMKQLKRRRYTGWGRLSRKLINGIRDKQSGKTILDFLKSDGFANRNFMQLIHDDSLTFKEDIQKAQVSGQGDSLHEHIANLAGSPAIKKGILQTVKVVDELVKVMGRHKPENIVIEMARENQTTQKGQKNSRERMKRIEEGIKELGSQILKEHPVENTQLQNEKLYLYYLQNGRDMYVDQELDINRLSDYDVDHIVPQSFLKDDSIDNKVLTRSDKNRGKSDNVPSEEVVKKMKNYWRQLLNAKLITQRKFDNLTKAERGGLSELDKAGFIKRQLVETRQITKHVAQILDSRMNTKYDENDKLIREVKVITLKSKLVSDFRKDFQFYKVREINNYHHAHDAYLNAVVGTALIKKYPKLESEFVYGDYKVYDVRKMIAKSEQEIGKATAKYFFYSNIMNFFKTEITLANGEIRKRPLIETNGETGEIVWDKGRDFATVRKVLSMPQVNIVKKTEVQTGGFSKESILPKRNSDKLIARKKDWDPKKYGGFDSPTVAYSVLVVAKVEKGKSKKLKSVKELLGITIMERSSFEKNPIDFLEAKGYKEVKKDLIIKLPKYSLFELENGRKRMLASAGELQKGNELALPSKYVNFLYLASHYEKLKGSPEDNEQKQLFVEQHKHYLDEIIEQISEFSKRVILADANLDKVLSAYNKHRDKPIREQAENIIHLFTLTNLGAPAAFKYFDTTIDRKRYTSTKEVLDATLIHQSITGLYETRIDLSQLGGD
Description: Screening of inhibitors was via a high throughput pipeline, as depicted in FIG. 29. The first screening is via a strand displacement assay (SDA) for detecting nuclease activity (FIG. 27A, 28A). The Cpf1/Cas12 protein/DNA complex has a different structure from Cas9 and requires optimization of the potential fluorophore attachment sites (Yamano, T et al., Cell, 2016). (FIG. 28A). Next screened compounds are evaluated in an eGFP cell assay, and for eGFP dose. Those compounds are further narrowed via a HiBiT assay and finally evaluated in the surveyor assay. SAR evaluations are performed to arrive at lead compounds for further evaluations and variations. General methodology for the assays is as described in at [0253]-[0301] of U.S. Patent Application 62/831,143 filed Apr. 8, 2019, incorporated herein by reference.
The 3′ end of the displacing single-stranded DNA was labeled with a quencher. Following nuclease cleavage of the substrate, the 3′-labeled quenching DNA strand (present in excess) could outcompete the weakly held 3′ strand to anneal to the 5′ strand. The resulting FRET fluorescence quenching provides an optical readout for nuclease activity (FIG. 62A).
Typically, SpCas9: gRNA (1:1.2 ratio) RNP was pre-formed at 1 μM in Cas9 assay buffer (20 mM Tris-HCl, pH=7.5, 100 mM KCl, 5 mM MgCl2) for 5 min at 4° C. before diluting to 10 nM in Cas9 assay buffer (2× final concentration). 25 μL of the Cas9 2× stock was manually dispensed to a black 384-well plate (Corning 3575) using electronic pipette. […] Following this, pre-annealed Alexa-Fluor 647 labeled substrate and quencher were also diluted to 1 nM and 5 nM in Cas9 assay buffer, respectively (2× stock solution). Next, 25 μL of the substrate/quencher solution was added manually to each well of the Cas9-containing 384-well plates using an electronic pipette and was incubated at 37° C. for 2.5 h. Fluorescent signals were read with the microplate reader set to read Alexa-Fluor 647 fluorescence. Assay was performed similarly with SaCas9 and FnCas12a using the respective enzyme, gRNA, substrate, and quencher oligos. […]

[2] = biological target: T1, SpCas9; experiment: eGFP disruption assay, SpCas9, U2OS.eGFP.PEST cells; type: cell-based; conditions: for Normalized Z rep1 / Z score Rep1: replicate 1; for SpCas9 eGFP disruption Rep1: replicate 1, raw readout; for Normalized Z rep2 / Z socre Rep2: replicate 2; for SpCas9 eGFP disruption Rep2: replicate 2, raw readout
Excerpt: In some embodiments, the secondary assay may be an EGFP disruption assay. In such assay, a quantitative human cell-based reporter assay that enables rapid quantitation of targeted nuclease activities is used to characterize off-target cleavage of Cas9-based RNA guided endonucleases. In this assay, the activities of nucleases targeted to a single integrated EGFP reporter gene can be quantified by assessing loss of fluorescence signal in human U2OS.EGFP cells caused by inactivating frameshift insertion/deletion (indel) mutations introduced by error prone non-homologous end-joining (NHEJ) repair of nuclease-induced double-stranded breaks (DSBs).
In one protocol, U2OS.EGFP cells harboring a single integrated copy of an EGFP-PEST fusion gene are cultured (see e.g., Reyon et al., Nat Biotech 30, 460-465 (2012), which is herein incorporated by reference in its entirety). For transfections, 200,000 cells are Nucleofected with gRNA expression plasmid and pJDS246 together with 30 ng of a Td-tomato-encoding plasmid using the SE Cell Line 4D-Nucleofector™ X Kit (Lonza) according to the manufacturer's protocol. Cells are analyzed 2 days post-transfection using a BD LSRII flow cytometer. Transfections for optimizing gRNA/Cas9 plasmid concentration are performed in triplicate and all other transfections are performed in duplicate. PCR amplification is used for sequence verification of endogenous human genomic sites. PCR reactions are performed using Phusion Hot Start II high-fidelity DNA polymerase (NEB). Loci are amplified using touchdown PCR (98° C., 10 s; 72-62° C., −1° C./cycle, 15s; 72° C., 30 s] 10 cycles, [98° C., 10s; 62° C., 15s; 72° C., 30 s] 25 cycles). Alternatively, PCR for other targets is performed with 35 cycles at a constant annealing temperature of 68° C. or 72° C., and 3% DMSO or IM betaine, if necessary. PCR products are analyzed on a QIAXCEL capillary electrophoresis system to verify both size and purity. Validated products are treated with ExoSap-IT (Affymetrix) and sequenced by the Sanger method (MGH DNA Sequencing Core) to verify each target site.
Primary and secondary screening. The primary screen assayed a selection of unique chemical scaffolds derived from commercially available compounds and known bioactive molecular libraries (Table 7). Auto-fluorescent compounds were removed by a counter screen. Overall, the CAA was used to assay 122,409 small molecules with over 2,500 unique chemical scaffolds (FIG. 64F, Table 7). Of these compounds, 547 were selected as hits (Z score >3 in both replicates) for testing in orthogonal cell-based secondary assays. Hits were tested in duplicate in an eGFP disruption assay, wherein U2OS.eGFP.PEST cells^33 transfected with SpCas9 plasmid and eGFP-targeting gRNA plasmid were incubated with 20 μM of the compounds. In this assay, any compound that inhibited SpCas9 would rescue the loss of eGFP fluorescence. Here, toxic and auto-fluorescent compounds with a high GFP signal in cells were removed as false positives. […] Next, Applicants tested the 15 compounds in a luminescence-based gain-of-signal HiBiT knock-in assay, which involves SpCas9-mediated homology-directed tagging of GAPDH with a short peptide that luminesces upon complementation with a subunit derived from nanoluciferase.^34 Complementarily, the eGFP-disruption assay is fluorescence-based and involves error-prone DNA repair. As a counter-screen to remove false positives caused by cell death (viability <80%), the cell viability was measured after incubation.
For SAR studies and dose-response studies, 300,000 U2OS.eGFP.PEST cells were nucleofected with 300 ng of SpCas9 plasmid (Addgene #43861) and 30 ng of eGFP-targeting gRNA plasmid (Addgene #47511)^33 using SE Cell Line 4D-Nucleofector X Kit (Lonza) following the pulse program of DN-100. For RNP-based genome editing, 10 pmol of SpCas9 (GenScript #Z03385) and 12 pmol of gRNA were mixed and incubated for 5 min. […]

## CCn1c(=O)c(C(=O)Nc2nccc(C)n2)c(O)c2ccccc21 [Compound G650-0193]
[1]
  Average Normalized Z score: 0.21
  avg z score primary: 11.65
  Normalized Z score 1: 0.19
  Normalized Z score 2: 0.23
[2]
  Normalized Z rep1: −0.05
  Z score Rep1: −0.45
  SpCas9 eGFP disruption Rep1: 63.431
  Normalized Z rep2: −0.43
  Z socre Rep2: −6.43
  SpCas9 eGFP disruption Rep2: 55.676

## Cn1nc(-c2ccccc2F)c2cc(C(=O)Oc3ccc4cnccc4c3)sc21 [Compound G784-0099]
[1]
  Average Normalized Z score: 0.07
  avg z score primary: 7.48
  Normalized Z score 1: 0.06
  Normalized Z score 2: 0.09
[2]
  Normalized Z rep1: −0.35
  Z score Rep1: −3.62
  SpCas9 eGFP disruption Rep1: 69.21
  Normalized Z rep2: 0.01
  Z socre Rep2: 0.21
  SpCas9 eGFP disruption Rep2: 76.066

## O=C(Nc1nc(-c2ccccc2)c(C(=O)c2ccccc2)s1)c1ccc2c(c1)OCCO2 [Compound G786-0335]
[1]
  Average Normalized Z score: 0.04
  avg z score primary: 4.14
  Normalized Z score 1: 0.04
  Normalized Z score 2: 0.04
[2]
  Normalized Z rep1: −0.08
  Z score Rep1: −0.79
  SpCas9 eGFP disruption Rep1: 74.347
  Normalized Z rep2: 0.09
  Z socre Rep2: 2.13
  SpCas9 eGFP disruption Rep2: 77.667

## CNS(=O)(=O)c1ccc2nc(NC(=O)c3ccc(N4C(=O)CCC4=O)cc3)sc2c1 [Compound G786-1562]
[1]
  Average Normalized Z score: 0.06
  avg z score primary: 6.00
  Normalized Z score 1: 0.05
  Normalized Z score 2: 0.07
[2]
  Normalized Z rep1: −0.26
  Z score Rep1: −2.41
  SpCas9 eGFP disruption Rep1: 57.872
  Normalized Z rep2: −0.25
  Z socre Rep2: −3.72
  SpCas9 eGFP disruption Rep2: 60.132

## Cc1ccc(-c2nc(CN3CCCC(C(=O)Nc4cc(C)ccc4O)C3)no2)cc1 (stereo not drawn) [Compound J065-2258]
[1]
  Average Normalized Z score: 0.12
  avg z score primary: 5.05
  Normalized Z score 1: 0.10
  Normalized Z score 2: 0.14
[2]
  Normalized Z rep1: −0.12
  Z score Rep1: −1.25
  SpCas9 eGFP disruption Rep1: 73.517
  Normalized Z rep2: −0.06
  Z socre Rep2: −1.43
  SpCas9 eGFP disruption Rep2: 74.702

## C=Cc1ccc(CSC2=NS(=O)(=O)c3ccccc3N2)cc1 [Compound K261-1443]
[1]
  Average Normalized Z score: 0.16
  avg z score primary: 4.25
  Normalized Z score 1: 0.15
  Normalized Z score 2: 0.17
[2]
  Normalized Z rep1: −0.17
  Z score Rep1: −1.74
  SpCas9 eGFP disruption Rep1: 72.619
  Normalized Z rep2: −0.19
  Z socre Rep2: −4.27
  SpCas9 eGFP disruption Rep2: 72.337
